SMILES strings stand for the structures.

The values below come from patent publication US20200239530A1, “COMPOUNDS AND METHODS OF MODULATING PROTEIN DEGRADATION” (Vividion Therapeutics, Inc., priority 2017, published 2020).

In the test the target is T1, RRP1B Ribosomal RNA processing protein 1 homolog B (Homo sapiens, UniProt Q14684).
T1 construct: Cells were resuspended in cold PBS on ice and sonicated with a probe sonicator to achieve lysis; endogenous in cells
T1 sequence (Q14684 1-758): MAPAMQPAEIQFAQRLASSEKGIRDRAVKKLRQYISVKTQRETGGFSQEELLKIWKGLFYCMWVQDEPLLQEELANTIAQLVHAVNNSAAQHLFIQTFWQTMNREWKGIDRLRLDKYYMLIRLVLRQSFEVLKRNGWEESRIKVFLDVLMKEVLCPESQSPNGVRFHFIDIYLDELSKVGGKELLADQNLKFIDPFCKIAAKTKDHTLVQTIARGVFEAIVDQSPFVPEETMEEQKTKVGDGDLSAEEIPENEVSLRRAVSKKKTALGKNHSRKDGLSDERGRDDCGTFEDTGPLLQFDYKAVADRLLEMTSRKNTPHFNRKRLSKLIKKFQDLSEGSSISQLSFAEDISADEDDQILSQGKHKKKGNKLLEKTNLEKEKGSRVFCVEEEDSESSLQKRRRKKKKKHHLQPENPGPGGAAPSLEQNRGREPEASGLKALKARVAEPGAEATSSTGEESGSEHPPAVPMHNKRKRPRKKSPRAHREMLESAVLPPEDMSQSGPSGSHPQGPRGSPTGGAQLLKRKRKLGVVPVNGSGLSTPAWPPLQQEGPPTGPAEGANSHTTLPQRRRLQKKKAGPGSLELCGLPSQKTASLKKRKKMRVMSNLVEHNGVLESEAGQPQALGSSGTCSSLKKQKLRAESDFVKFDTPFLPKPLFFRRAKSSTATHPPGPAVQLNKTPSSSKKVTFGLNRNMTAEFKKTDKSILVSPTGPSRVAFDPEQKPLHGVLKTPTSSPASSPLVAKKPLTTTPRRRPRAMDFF
As to the kind of experiment: Cysteine liganding, probe competition. In kind it is binding. An outline of the steps:
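Probe competition in native proteome: 5 mg/ml lysate, compound 1 hr 25° C, then desthiobiotin iodoacetamide (10 mM stock) 1 hr 25° C; acetone ppt, urea/DTT reduction, iodoacetamide alkylation, trypsin, streptavidin pull-down.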

With `COc1ccc2c(c1)CCCN2C(=O)CCl` [KB02], the Liganded entry (RRP1B Res# 155, uniprot Q14684) is “YES”.
Turning to `O=C(CCl)Nc1cc(C(F)(F)F)cc(C(F)(F)F)c1` [KBO3], for the setting “uniprot Q14684”, the “100 Max” value was 27.08, the 100 ave was found to be 18.31, the “500 Max” value turned out to be 70.79 and the 500 ave came out at 66.05.
